Experiment [1] has as its target recombinant ROCK2 (amino acids 1-552) (Homo sapiens (Human), UniProt O75116). Put plainly: Z'-lyte kinase assay, ROCK2. The note with it: for inhibition at 0.5 µM: read-out: ROCK2 % inh (0.5 μM). It is filed as biochemical. The protocol: (§1) Determination of compounds ROCK inhibitory activity in vitro (Z'lyte assay): recombinant ROCK1 (amino acids 1-535) and ROCK2 (amino acids 1-552) proteins were purchased from ThermoFisher Scientific. Compounds activities were measured by Z'-lyte kinase kit (ThermoFisher Scientific) and IC50s were calculated.
(§2) Compounds activities were measured by Z'-lyte kinase kit (ThermoFisher Scientific). […] IC50s were calculated using the GraphPad Prism software with kinase activities data that were collected from 9 points serial dilution of compounds treatment. The ROCK inhibition in A7R5 cells and NIH3T3 (Acta2-Luc) cells was performed as described above.
(§3) The percent inhibition rate was calculated by normalizing the kinase activity value obtained with compound treatment against DMSO control value and then applied to the equation, […]. IC50's were calculated using the nonlinear regression curve fit function of the GraphPad Prism software with kinase activities data measured with 9 points 2-fold serial dilution of compounds treatment.

Experiment [2] has as its system ppMlc (T18/S19) levels in A7R5 cells. Briefly: A7R5 in-cell ELISA assay (ppMlc). The class given is cell-based, rat. The protocol: Determination of compounds ROCK inhibitory activity in A7R5 cells: rat aortic smooth muscle cell line A7R5 cells were maintained and treated in DMEM medium with 10% of fetal bovine serum. Cells were seeded with density of 5,000 cells/well in 96-well plates for 24 hours and subsequently treated 90 min with testing compounds. Cells were then fixed and processed according to the In-Cell ELISA Colorimetric Detection Kit manual (Thermo Scientific).
A7R5 cells were treated with 9 points 2 fold serial dilution of compounds and ppMlc (T18/S19) levels were determined in order to calculate the cellular IC50s of the compounds.
An A7R5 in-cell ELISA assay was performed to determine ROCK inhibition of test articles. A7R5 cells were treated with 9 points 2-fold serial dilution of compounds and ppMlc (T18/S19) levels were determined to calculate cellular IC50 values of the compounds. […] A7R5 cells were treated with 9 points 2-fold serial dilution of compounds and ppMlc (T18/S19) levels were determined to calculate cellular IC50 values of the compounds using the nonlinear regression curve fit function of the GraphPad Prism software.
(In general: ELISA stands for enzyme-linked immunosorbent assay.)

Experiment [3] concerns ACTA2-promoter-driven-luciferase in NIH3T3 cells. Put plainly: NIH3T3 Acta2-promoter driven-luciferase assay. It is filed as cell-based. Particulars: Mus musculus, plus TGFβ1, 24 hr, read-out: NIH3T3, Acta2-luc, IC50. The protocol:
NIH3T3 cells Acta2-promoter driven-luciferase assay: A NIH3T3 cell line stably expressing a luciferase reporter driven by the human ACTA2 gene promoter (−1000-1 bp) was established (NIH3T3-Acta2-luciferase). The cells were plated to confluence and treated with the test compounds plus TGFβ1 for 24 hr. Cells were then lysed and luciferase activity was measured using the LightSwitch luciferase kit from Active Motif.
ROCK inhibitors can be effectively rank ordered by ACTA2-promoter-driven-luciferase reporter cell assay. NIH3T3 cells stably expressing ACTA2-promoter-driven-luciferase were applied to measure ROCK compounds functional IC50's in cells. Cells were plated in 96 well plates to confluence and treated with 9 points serial dilution of compounds in combination with TGFβ1 for 24 hr. Luciferase activities were measured and compound's IC50's were calculated using the nonlinear regression curve fit function of the GraphPad Prism software. Compounds of the invention gave in cell IC50's under 200 nM, see FIG. 1c.

For experiment [4], the target named is recombinant ROCK1 (amino acids 1-535) (Homo sapiens (Human), UniProt Q13464). Put plainly: Z'-lyte kinase assay, ROCK1. The class given is biochemical. As to the method: as §1, §2, §3
The mark [5] stands for this setting: Rattus norvegicus, A7R5, A7R5 cells, Table 2, read-out: pMLC IC50 (nM) A7R5.

Where two headings read alike, the source gives them in different places.

Chain of recombinant ROCK1 (amino acids 1-535) (Q13464 1-535): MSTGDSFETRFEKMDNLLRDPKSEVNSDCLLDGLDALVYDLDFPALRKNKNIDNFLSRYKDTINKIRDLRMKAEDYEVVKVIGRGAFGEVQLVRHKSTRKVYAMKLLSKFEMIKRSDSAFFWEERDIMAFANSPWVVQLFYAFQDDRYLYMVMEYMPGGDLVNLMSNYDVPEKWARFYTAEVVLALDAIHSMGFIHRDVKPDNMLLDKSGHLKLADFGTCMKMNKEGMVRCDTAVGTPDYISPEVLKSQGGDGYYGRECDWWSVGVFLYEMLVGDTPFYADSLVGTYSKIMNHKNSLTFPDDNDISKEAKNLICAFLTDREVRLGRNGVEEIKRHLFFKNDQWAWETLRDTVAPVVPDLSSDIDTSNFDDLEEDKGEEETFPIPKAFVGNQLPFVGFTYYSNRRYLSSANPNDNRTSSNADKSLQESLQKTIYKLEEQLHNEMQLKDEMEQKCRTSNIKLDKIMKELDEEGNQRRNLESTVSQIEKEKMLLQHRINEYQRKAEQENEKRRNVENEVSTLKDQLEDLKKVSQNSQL
Chain of recombinant ROCK2 (amino acids 1-552) (O75116 1-552): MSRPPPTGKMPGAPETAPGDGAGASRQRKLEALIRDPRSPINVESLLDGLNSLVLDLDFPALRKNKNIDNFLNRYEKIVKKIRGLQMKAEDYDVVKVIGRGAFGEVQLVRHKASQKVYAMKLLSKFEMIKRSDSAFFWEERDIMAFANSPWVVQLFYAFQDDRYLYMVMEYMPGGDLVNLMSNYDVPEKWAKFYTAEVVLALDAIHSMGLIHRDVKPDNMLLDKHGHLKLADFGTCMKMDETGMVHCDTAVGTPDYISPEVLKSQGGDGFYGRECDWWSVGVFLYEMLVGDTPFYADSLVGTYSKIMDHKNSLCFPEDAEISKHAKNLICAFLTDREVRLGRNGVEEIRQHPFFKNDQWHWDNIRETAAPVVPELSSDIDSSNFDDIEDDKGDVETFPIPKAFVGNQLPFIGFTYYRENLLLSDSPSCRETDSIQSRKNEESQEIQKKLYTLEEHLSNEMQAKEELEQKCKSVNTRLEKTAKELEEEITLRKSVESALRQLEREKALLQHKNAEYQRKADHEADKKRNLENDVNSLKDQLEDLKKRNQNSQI

Take `COc1cccc([C@H](NCCN(C)C)C(=O)Nc2ccc(-c3cn[nH]c3)cc2)c1` [Example 60, (S)—N-(4-(1H-pyrazol-4-yl)phenyl)-2-((2-(dimethylamino)ethyl)amino)-2-(3-methoxyphenyl)acetamide]: the half-maximal inhibitory concentration (IC50) in experiment [1] was 98 nM; in experiment [2] (setting [5]), 695 nM; in experiment [3], 1410 nM; in experiment [4], 258 nM.
For `CNC(C(=O)Nc1ccc(-c2cn[nH]c2)cc1)c1cccc(OC(F)F)c1` (stereo not shown) [Example 24, N-(4-(1H-pyrazol-4-yl)phenyl)-2-(3-(difluoromethoxy)phenyl)-2-(methylamino)acetamide], the concentration for half-maximal inhibition (IC50) was 22 nM in experiment [1], 334 nM in experiment [2] (setting [5]), 1710 nM in experiment [3] and 88 nM in experiment [4]. Further, in experiment [1], the inhibition at 0.5 µM worked out at 97%.
`COCCN[C@H](C(=O)Nc1ccc(-c2cn[nH]c2)cc1)c1cccc(OC)c1` [Example 59, (S)—N-(4-(1H-pyrazol-4-yl)phenyl)-2-((2-methoxyethyl)amino)-2-(3-methoxyphenyl)acetamide]: the half-maximal inhibitory concentration (IC50) in experiment [1] is 239 nM; in experiment [2] (A7R5 cells, Table 2, read-out: pMLC IC50 (nM) A7R5), 5550 nM; in experiment [2] (setting [5]), 4170 nM; in experiment [3], greater than 5000 nM; in experiment [4], 759 nM.
For `CNC(C(=O)Nc1ccc(-c2cn[nH]c2)cc1)c1cccc(Cl)c1` (stereo not shown) [Example 20, N-(4-(1H-pyrazol-4-yl)phenyl)-2-(3-chlorophenyl)-2-(methylamino)acetamide], the 50% inhibitory concentration (IC50) in experiment [1] was 1.7 nM; in experiment [2] (setting [5]), 263 nM; in experiment [3], 157 nM. Also, the inhibition at 0.5 µM in experiment [1] came out at 94%; in experiment [4] (@ 0.5 μM, read-out: ROCK1 % inh (0.5 μM)), 98%.
Regarding `COc1cccc([C@@H](NCCN(C)C)C(=O)Nc2ccc(-c3cn[nH]c3)cc2)c1` [Example 61, (R)—N-(4-(1H-pyrazol-4-yl)phenyl)-2-((2-(dimethylamino)ethyl)amino)-2-(3-methoxyphenyl)acetamide], the half-maximal inhibitory concentration (IC50) is 2.9 nM in experiment [1], 35 nM in experiment [2] (setting [5]), 48 nM in experiment [3] and 7.7 nM in experiment [4].
For `CNC(C(=O)Nc1ccc(-c2cn[nH]c2)cc1)c1ccc2c(C)n[nH]c2c1` (stereo not shown) [Example 33, N-(4-(1H-pyrazol-4-yl)phenyl)-2-(3-methyl-1H-indazol-6-yl)-2-(methylamino)acetamide] the same measures were 29 nM, 913 nM, 1480 nM and 85 nM.
As to `CNC(C(=O)Nc1ccc(-c2cn[nH]c2)cc1)c1ccccc1OC` (stereo not shown) [Example 8, N-(4-(1H-pyrazol-4-yl)phenyl)-2-(2-methoxyphenyl)-2-(methylamino)acetamide], the half-maximal inhibitory concentration (IC50) in experiment [1] was determined as 3 nM; in experiment [2] (setting [5]) it was 517 nM; in experiment [2] (Rattus norvegicus, A7R5, A7R5 cells, ppMlc (T18/S19), in-cell ELISA, read-out: ppMlc IC50), 517 nM; in experiment [4], 12 nM.
For the compound `CNCCN[C@H](C(=O)Nc1ccc(-c2cn[nH]c2)cc1)c1cccc(OC)c1` [Example 63, (S)—N-(4-(1H-pyrazol-4-yl)phenyl)-2-(3-methoxyphenyl)-2-((2-(methylamino)ethyl)amino)acetamide], the IC50 was determined as 22 nM in experiment [1], 548 nM in experiment [2] (setting [5]), 633 nM in experiment [3] and 81 nM in experiment [4].
With `CNCCN[C@@H](C(=O)Nc1ccc(-c2cn[nH]c2)cc1)c1cccc(OC)c1` [Example 62, (R)—N-(4-(1H-pyrazol-4-yl)phenyl)-2-(3-methoxyphenyl)-2-((2-(methylamino)ethyl)amino)acetamide], the IC50 in experiment [1] worked out at 1.8 nM; in experiment [2] (setting [5]), 58 nM; in experiment [3], 108 nM; in experiment [4], 3 nM.
For `COCCN[C@@H](C(=O)Nc1ccc(-c2cn[nH]c2)cc1)c1cccc(OC)c1` [Example 58, (R)—N-(4-(1H-pyrazol-4-yl)phenyl)-2-((2-methoxyethyl)amino)-2-(3-methoxyphenyl)acetamide] the same measures were 12 nM, 484 nM, 74 nM and 57 nM.
On to `CNC(=O)c1ccc(C(NC)C(=O)Nc2ccc(-c3cn[nH]c3)cc2)cc1` (stereo not shown) [Example 69, 4-(2-((4-(1H-pyrazol-4-yl)phenyl)amino)-1-(methylamino)-2-oxoethyl)-N-methylbenzamide], for which the half-maximal inhibitory concentration (IC50) is 400 nM in experiment [1], greater than 5000 nM in experiment [2] (setting [5]) and greater than 5000 nM in experiment [3].
Turning to `CNC(=O)c1cccc(C(NC)C(=O)Nc2ccc(-c3cn[nH]c3)cc2)c1` (stereo not shown) [Example 67, 3-(2-((4-(1H-pyrazol-4-yl)phenyl)amino)-1-(methylamino)-2-oxoethyl)-N-methylbenzamide], the half-inhibitory concentration (IC50) is 1.9 nM in experiment [1], 269 nM in experiment [2] (setting [5]) and 296 nM in experiment [3].
In the same order, the values of `CNC(C(=O)Nc1ccc(-c2cn[nH]c2)cc1)c1ccc(N(C)C)cc1` (stereo not shown) [Example 31, N-(4-(1H-pyrazol-4-yl)phenyl)-2-(4-(dimethylamino)phenyl)-2-(methylamino)acetamide] are 55 nM, 667 nM and 1230 nM.
In the same order, the values of `CNC(C(=O)Nc1ccc(-c2cn[nH]c2)cc1)c1cccc(C)c1` (stereo not shown) [Example 14, N-(4-(1H-pyrazol-4-yl)phenyl)-2-(methylamino)-2-(m-tolyl)acetamide] are 6.8 nM, 353 nM and 496 nM.
In the same order, the values of `CCNC(C(=O)Nc1ccc(-c2cn[nH]c2)cc1)c1ccc(Cl)cc1` (stereo not shown) [Example 22, N-(4-(1H-pyrazol-4-yl)phenyl)-2-(4-chlorophenyl)-2-(ethylamino)acetamide] are 8.9 nM, 169 nM and 155 nM.
As for `CNC(=O)CNC(C(=O)Nc1ccc(-c2cn[nH]c2)cc1)c1cccc(OC)c1` (stereo not shown) [Example 44, N-(4-(1H-pyrazol-4-yl)phenyl)-2-(3-methoxyphenyl)-2-((2-(methylamino)-2-oxoethyl)amino)acetamide], the IC50 was found to be 42 nM in experiment [1], 2020 nM in experiment [2] (setting [5]) and 2230 nM in experiment [3].
For `COc1cccc(C(NCC(=O)N(C)C)C(=O)Nc2ccc(-c3cn[nH]c3)cc2)c1` (stereo not shown) [Example 39, N-(4-(1H-pyrazol-4-yl)phenyl)-2-((2-(dimethylamino)-2-oxoethyl)amino)-2-(3-methoxyphenyl)acetamide] the same measures were 16 nM, 1670 nM and greater than 5000 nM.
For `COCCCNC(C(=O)Nc1ccc(-c2cn[nH]c2)cc1)c1cccc(OC)c1` (stereo not shown) [Example 36, N-(4-(1H-pyrazol-4-yl)phenyl)-2-(3-methoxyphenyl)-2-((3-methoxypropyl)amino)acetamide] the same measures were 16 nM, 1580 nM and 1550 nM.
Regarding `CCNC(C(=O)Nc1ccc(-c2cn[nH]c2)cc1)c1cccc(F)c1` (stereo not shown) [Example 15, N-(4-(1H-pyrazol-4-yl)phenyl)-2-(ethylamino)-2-(3-fluorophenyl)acetamide], the half-inhibitory concentration (IC50) in experiment [1] came to 24 nM; in experiment [2] (setting [5]), 655 nM; in experiment [3], 1050 nM.
Consider `CNC(C(=O)Nc1ccc(-c2cn[nH]c2)cc1)c1cccc(C(=O)OC)c1` (stereo not shown) [Example 30, Methyl 3-(2-((4-(1H-pyrazol-4-yl)phenyl)amino)-1-(methylamino)-2-oxoethyl)benzoate], for which the half-inhibitory concentration (IC50) in experiment [1] is 18 nM; in experiment [2] (setting [5]), 247 nM; in experiment [3], greater than 5000 nM.
In the same order, the values of `COCCNC(C(=O)Nc1ccc(-c2cn[nH]c2)c(F)c1)c1cccc(OC)c1` (stereo not shown) [Example 55, N-(3-fluoro-4-(1H-pyrazol-4-yl)phenyl)-2-((2-methoxyethyl)amino)-2-(3-methoxyphenyl)acetamide] are 17 nM, 506 nM and 601 nM.

One may read the IC50 as the concentration that gives 50% inhibition.

The record behind these values is patent publication US11479533B2, “Inhibitors of Rho associated coiled-coil containing protein kinase” (KADMON CORPORATION, LLC, priority 2017, dated 2022).
